# Values quoted from earlier work as cited in patent US11957779B2, “Agent for dyeing keratinous material, containing aminosilicone, pigment and polysaccharide” (Henkel AG & Co. KGaA, priority 2019, dated 2024).
# Assays:
# [1] = 25° C.
# [2] = 5% solution in water
Compound,solubility in water [1],also measured
"O=C([O-])C1=NN(c2ccc(S(=O)(=O)[O-])cc2)C(=O)C1N=Nc1ccc(S(=O)(=O)[O-])cc1.[Na+].[Na+].[Na+] (stereo not drawn) [Acid Yellow 23, trisodium salt of 4,5-dihydro-5-oxo-1-(4-sulfophenyl)-4-((4-sulfophenyl)azo)-1H-pyrazole-3-carboxylic acid]",,solubility in water (in words) [1]: highly soluble
"Nc1cc(S(=O)(=O)[O-])cc2cc(S(=O)(=O)[O-])c(N=Nc3ccccc3)c(O)c12.[Na+].[Na+] [Acid Red 33, diantrium salt of 5-amino-4-hydroxy-3-(phenylazo)-naphthalene-2,7-disulphonate]",2500 µg/mL,
"O=S(=O)([O-])c1ccc(N=Nc2c(O)ccc3ccccc23)cc1.[Na+] [Acid Orange 7, sodium salt of 4-[(2-hydroxy-1-naphthyl)azo]benzene sulphonate]",more than 7 g/L,
CCN(Cc1cccc(S(=O)(=O)[O-])c1)c1ccc(C(=C2C=CC(=[N+](CC)Cc3cccc(S(=O)(=O)[O-])c3)C=C2)c2ccccc2S(=O)(=O)[O-])cc1.[Na+].[Na+] [Acid Blue 9],more than 20 wt. %,
O=P([O-])(O)O.[K+] [Potassium dihydrogen phosphate],,pH value [2]: about 4.4
"O=C([O-])c1c(Cl)c(Cl)c(Cl)c(Cl)c1-c1c2c(Br)cc(=O)c(Br)c-2oc2c(Br)c(O)cc(Br)c12.O=C([O-])c1c(Cl)c(Cl)c(Cl)c(Cl)c1-c1c2c(Br)cc(=O)c(Br)c-2oc2c(Br)c(O)cc(Br)c12.[Na+].[Na+] [Acid Red 92, disodium salt of 3,4,5,6-tetrachloro-2-(1,4,5,8-tetrabromo-6-hydroxy-3-oxoxanthen-9-yl)benzoic acid]",greater than 10 g/L,
